The target of one assay is T1, human LXRβ (Homo sapiens, UniProt P55055).
T1 construct: biotin (biotinylated); made in house; host or cells: E. coli
T1 sequence (P55055 1-460): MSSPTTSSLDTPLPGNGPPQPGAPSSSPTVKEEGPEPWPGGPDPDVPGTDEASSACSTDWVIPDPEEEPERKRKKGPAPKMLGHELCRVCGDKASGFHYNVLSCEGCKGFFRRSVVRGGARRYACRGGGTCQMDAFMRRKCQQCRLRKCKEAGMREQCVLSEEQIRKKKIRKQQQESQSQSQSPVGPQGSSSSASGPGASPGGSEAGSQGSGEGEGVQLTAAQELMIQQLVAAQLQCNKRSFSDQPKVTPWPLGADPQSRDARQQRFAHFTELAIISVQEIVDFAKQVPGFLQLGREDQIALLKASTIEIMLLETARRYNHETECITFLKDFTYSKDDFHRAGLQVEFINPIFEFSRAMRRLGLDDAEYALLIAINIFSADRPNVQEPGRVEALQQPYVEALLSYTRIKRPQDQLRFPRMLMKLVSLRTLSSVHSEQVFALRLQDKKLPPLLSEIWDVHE
In words: Ligand-binding test procedure for human LXRβ. Conditions: 3H T0901317 tracer; biotinylated hLXRβ from E. coli extract. How it is done:
IV. Ligand-Binding Test Procedure for Human LXRβ.
(§1) Buffer: 100 mM KCl, 100 mM TRIS (pH 7.4 at +4° C.), 8.6% glycerol, 0.1 mM PMSF*, 2 mM MTG*, 0.2% CHAPS (* not used in wash buffer)
Receptor source: E. coli extract from cells expressing biotinylated hLXRβ. Extract was made in a similar buffer as above, but with 50 mM TRIS.
(§2) Washed streptavidin and coated flash plates with wash buffer. Diluted receptor extract to give Bmax ˜4000 cpm and add to the wells. Wrapped the plates in aluminum foil and stored them at +4° C. over night.
Made a dilution series in DMSO of the test ligands. Made a 5 nM solution of the radioactive tracer in buffer. Mixed 250 μl diluted tracer with 5 μl of the test ligand from each concentration of the dilution series. Washed the receptor-coated flash plates. Added 200 μl per well of the ligand/radiolabel mixture to the receptor-coated flash plates. Wrapped the plates in aluminum foil and incubate at +4° C. over night.
(§3) Aspirated wells, and wash the flashed plates. Sealed the plate. Measured the remaining radioactivity in the plate.

The target of a further assay is T2, human LXRα (Homo sapiens, UniProt Q13133).
T2 construct: biotin (biotinylated); made in house; host or cells: E. coli
T2 sequence (Q13133 1-447): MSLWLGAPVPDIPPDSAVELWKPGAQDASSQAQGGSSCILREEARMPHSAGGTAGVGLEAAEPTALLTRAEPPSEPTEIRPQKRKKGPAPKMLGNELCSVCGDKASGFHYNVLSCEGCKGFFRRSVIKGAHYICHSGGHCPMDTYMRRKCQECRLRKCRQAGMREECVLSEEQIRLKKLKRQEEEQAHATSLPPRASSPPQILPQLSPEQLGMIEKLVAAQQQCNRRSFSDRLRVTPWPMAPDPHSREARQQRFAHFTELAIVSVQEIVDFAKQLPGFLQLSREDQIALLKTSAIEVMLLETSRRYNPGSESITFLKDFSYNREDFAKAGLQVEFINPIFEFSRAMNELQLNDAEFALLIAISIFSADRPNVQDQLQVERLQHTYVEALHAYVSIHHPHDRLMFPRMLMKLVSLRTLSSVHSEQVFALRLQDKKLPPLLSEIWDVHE
In words: Ligand-binding test procedure for human LXRα. As to conditions: 3H T0901317 tracer; biotinylated hLXRα from E. coli extract. How it is done:
II. Ligand-Binding Test Procedure for Human LXRα.
as §1
Receptor source: E. coli extract from cells expressing biotinylated hLXRα. Extract was made in a similar buffer as above, but with 50 mM TRIS.
as §2
Made a dilution series in DMSO of the test ligands. Made a 5 nM solution of the radioactive tracer in buffer. Mixed 250 μl diluted tracer with 5 μl of the test ligand from each concentration of the dilution series.
Washed the receptor-coated flash plates.
Added 200 μl per well of the ligand/radiolabel mixture to the receptor-coated flash plates. Wrapped the plates in aluminum foil and incubate at +4° C. over night.
as §3

In the next assay the test system is ABCA1 gene. Put plainly: Quantitative analysis of ABCA1 gene regulation in THP-1 cells. Conditions: Gene regulation by LXR (human), differentiated THP-1 cells; for EC50: 18 hrs, ABCA1 mRNA by real-time PCR; for Agonism ABCA1: LXR agonist reference dosed at 1.0 uM as positive control. The assay is classed as cell-based. How it is done: III. Quantitative Analysis of ABCA1 Gene Regulation in THP-1 Cells.
The compounds of formula (I) effect on the regulation of the ABCA1 gene was evaluated using the following procedure.
Cell culture: The THP-1 monocytic cell line (ATCC # TIB-202) was obtained from American Type Culture Collection (Manassas, Va.) and cultured in RPMI 1640 medium (Gibco, Carlsbad, Calif.) containing 10% FBS, 2 mM L-glutamine, and 55 uM beta-Mercaptoethanol (BME). Cells were plated in 96-well format at a density of 7.5×10^4 in complete medium containing 50-100 ng/ml phorbal 12,13-dibutyrate (Sigma, St. Louis, Mo.) for three days to induce differentiation into adherent macrophages. Differentiated THP-1 cells were treated with test compounds or ligands dissolved in DMSO (Sigma, D-8779) in culture medium lacking phorbal ester. […] Dose response effects were measured in duplicate, in the range of 0.001 to 30 micromolar concentrations and treated cells were incubated for an additional 18 hrs prior to RNA isolation. Unstimulated cells treated with vehicle were included as negative controls on each plate. An LXR agonist reference, N-(2,2,2-trifluoro-ethyl)-N-[4-(2,2,2-trifluoro-1-hydroxy-1-trifluoromethyl-ethyl)-phenyl]-benzenesulfonamide (Schultz, Joshua R., Genes & Development (2000), 14(22), 2831-2838), was dosed at 1.0 uM and served as a positive control. In antagonist mode, the compound under study is analyzed in the presence of 150 nM GW3965, trifluoromethyl-benzyl)-(2,2-diphenyl-ethyl)-amino]-propoxy]-phenyl)-acetic acid (Collins, J. L., J. Med. Chem. (2000), 45:1963-1966.). Results of antagonist analysis are expressed as % antagonism and IC50 (in μM). RNA isolation and quantitation: Total cellular RNA was isolated from treated cells cultured in 96-well plates using PrepStation 6100 (Applied Biosystems, Foster City, Calif.), according to the manufacturer's recommendations. RNA was resuspended in ribonuclease-free water and stored at −70° C. prior to analysis. RNA concentrations were quantitated with RiboGreen test procedure, #R-11490 (Molecular Probes, Eugene, Oreg.). Gene expression analysis: Gene-specific mRNA quantitation was performed by real-time PCR with the Perkin Elmer Corp. chemistry on an ABI Prism 7700 Sequence detection system (Applied Biosystems, Foster City, Calif.) according to the manufacturer's instructions. Samples (50-100 ng) of total RNA were assayed in duplicate or triplicate in 50 ul reactions using one-step RT-PCR and the standard curve method to estimate specific mRNA concentrations. Sequences of gene-specific primer and probe sets were designed with Primer Express Software (Applied Biosystems, Foster City, Calif.). The human ABCA1 primer and probe sequences are: forward, […], reverse, […], and probe, 6FAM-[…]-TAMRA. RT and PCR reactions were performed according to PE Applied Biosystem's protocol for Taqman Gold RT-PCR or Qiagen's protocl for Quantitect probe RT-PCR. Relative levels of ABCA1 mRNA are normalized using GAPDH mRNA or 18S rRNA probe/primer sets purchased commercially (Applied Biosystems, Foster City, Calif.).
Mean, standard deviation and statistical significance of duplicate evaluations of RNA samples were assessed using ANOVA, one-way analysis of variance using SAS analysis.

The text below walks through data of patent US20100331333A1, “Imidazo [1,2-B] Pyridazine Compounds” (Wyeth LLC, priority 2007, published 2010).

`CCS(=O)(=O)c1cccc(Oc2cccc(-c3c(C(C)C)nc4c(C(F)(F)F)ccnn34)c2)c1` [Example 11, 3-{3-[3-(ethylsulfonyl)phenoxy]phenyl}-2-isopropyl-8-(trifluoromethyl)imidazo[1,2-b]pyridazine]: the IC50 – broadly, the midpoint of a concentration-inhibition curve – at human LXRβ worked out at 117 nM. In addition, on human LXRα, the IC50 was found to be 1090 nM. In the assay with ABCA1 gene, the EC50 (as a rule, the concentration giving half of the maximal effect) was 2050 nM and the “Agonism ABCA1” value is 92%.
Consider `CS(=O)(=O)c1cccc(Oc2cccc(-c3c(Cc4ccccc4)nc4c(C(F)(F)F)ccnn34)c2)c1` [Example 7, 2-Benzyl-3-{3-[3-(methylsulfonyl)phenoxy]phenyl}-8-(trifluoromethyl)imidazo[1,2-b]pyridazine], for which the IC50 was 1.96 nM on human LXRβ and 44 nM at human LXRα.
As for `CCc1nc2c(C(F)(F)F)ccnn2c1-c1cccc(Oc2cccc(S(C)(=O)=O)c2)c1` [Example 8, 2-ethyl-3-{3-[3-(methylsulfonyl)phenoxy]phenyl}-8-(trifluoromethyl)imidazo[1,2-b]pyridazine], the IC50 on human LXRβ was 133 nM. The IC50 on human LXRα is 2040 nM. In addition, in the assay on ABCA1 gene, the EC50 turned out to be 1850 nM and the “Agonism ABCA1” value turned out to be 85%.
The corresponding values for `CC(C)c1nc2c(C(F)(F)F)ccnn2c1-c1cccc(Oc2cccc(S(C)(=O)=O)c2)c1` [Example 10, 2-isopropyl-3-{3-[3-(methylsulfonyl)phenoxy]phenyl}-8-(trifluoromethyl)imidazo[1,2-b]pyridazine] are 99 nM, 1460 nM, 1840 nM and 81%.
Consider `CCc1nc2c(C(F)(F)F)ccnn2c1-c1cccc(Oc2cccc(S(=O)(=O)CC)c2)c1` [Example 9, 2-Ethyl-3-{3-[3-(ethylsulfonyl)phenoxy]phenyl}-8-(trifluoromethyl)imidazo[1,2-b]pyridazine], for which the IC50 on human LXRβ turned out to be 148 nM; on human LXRα it was 1570 nM.
